Data: article PMC9076587 (RSC Advances, 2019)
“Also recorded” adds a separate entry of the source.

test system: MCF-7 cells; assay: MTT anti-proliferative assay, MCF-7; type: cell-based; conditions: Homo sapiens, MCF7, read-out: IC50 MCF-7

**Q.** With COc1ccc(/C(=C(/CCn2cc(CN3C(=O)C(=O)c4cc(Br)ccc43)nn2)c2ccccc2)c2ccccc2)cc1 [12b] as the molecule, how does the IC50 read?
**A.** The IC50 was over 100 µM.

**Q.** COc1ccc(/C(=C(/CCn2cc(CN3C(=O)C(=O)c4cc(Br)cc(Br)c43)nn2)c2ccccc2)c2ccccc2)cc1 [12c] was tested. Which IC50 did it give?
**A.** The IC50 was 13.1 µM.

**Q.** With COc1ccc(/C(=C(/CCn2cc(CN3C(=O)C4(OCCO4)c4cc(Cl)ccc43)nn2)c2ccccc2)c2ccccc2)cc1 [13a] as the molecule, how does the IC50 read?
**A.** Its IC50 is 21 µM.

**Q.** How did the IC50 turn out when O=C1C(=O)N(Cc2cn(CC/C(=C(\c3ccccc3)c3ccc(OCCO)cc3)c3ccccc3)nn2)c2ccccc21 [14a] was run?
**A.** The IC50 was over 100 µM.

**Q.** With O=C1C(=O)N(Cc2cn(CC/C(=C(\c3ccccc3)c3ccc(OCCO)cc3)c3ccccc3)nn2)c2ccc(Cl)cc21 [14b] as the molecule, how does the IC50 read?
**A.** The IC50 was 33.1 µM.

**Q.** For O=C1C(=O)N(Cc2cn(CC/C(=C(\c3ccccc3)c3ccc(OCCO)cc3)c3ccccc3)nn2)c2ccc(F)cc21 [14c], which IC50 is on record?
**A.** The IC50 was 70.7 µM.

**Q.** For O=C1C(=O)N(Cc2cn(CC/C(=C(\c3ccccc3)c3ccc(OCCO)cc3)c3ccccc3)nn2)c2ccc(Br)cc21 [14d], which IC50 is on record?
**A.** Its IC50 is over 100 µM.

**Q.** With O=C1C(=O)N(Cc2cn(CC/C(=C(\c3ccccc3)c3ccc(OCCO)cc3)c3ccccc3)nn2)c2c(Br)cc(Br)cc21 [14e] as the molecule, how does the IC50 read?
**A.** The IC50 was 31.6 µM.

**Q.** Which IC50 does the source give for O=C1N(Cc2cn(CC/C(=C(\c3ccccc3)c3ccc(OCCO)cc3)c3ccccc3)nn2)c2ccc(Cl)cc2C12OCCO2 [15b] here?
**A.** Its IC50 is over 100 µM.

**Q.** Which IC50 does the source give for O=C1N(Cc2cn(CC/C(=C(\c3ccccc3)c3ccc(OCCO)cc3)c3ccccc3)nn2)c2ccc(F)cc2C12OCCO2 [15c] here?
**A.** The IC50 was over 100 µM.

**Q.** Which IC50 does the source give for O=C1N(Cc2cn(CC/C(=C(\c3ccccc3)c3ccc(OCCO)cc3)c3ccccc3)nn2)c2ccc(Br)cc2C12OCCO2 [15d] here?
**A.** Its IC50 is over 100 µM.

**Q.** With OCCOc1ccc(/C(=C(/CCCl)c2ccccc2)c2ccccc2)cc1 [OSP, Ospemifene, reference compound] as the molecule, how does the IC50 read?
**A.** The IC50 was 55 µM.

**Q.** Which IC50 does the source give for CC1=CC(=O)c2c(O)cccc2C1=O [Plumbagin, reference compound] here?
**A.** The IC50 was 3.5 µM.

test system: MDA-MB-231 cells; assay: MTT anti-proliferative assay, MDA-MB-231; type: cell-based; conditions: Homo sapiens, MDA-MB-231, read-out: IC50 MDA-MB-231

**Q.** COc1ccc(/C(=C(/CCn2cc(CN3C(=O)C(=O)c4cc(Br)ccc43)nn2)c2ccccc2)c2ccccc2)cc1 [12b] was tested. Which IC50 did it give?
**A.** Its IC50 is 75.9 µM.

**Q.** Which IC50 does the source give for COc1ccc(/C(=C(/CCn2cc(CN3C(=O)C(=O)c4cc(Br)cc(Br)c43)nn2)c2ccccc2)c2ccccc2)cc1 [12c] here?
**A.** The IC50 was 14.8 µM.

**Q.** For COc1ccc(/C(=C(/CCn2cc(CN3C(=O)C4(OCCO4)c4cc(Cl)ccc43)nn2)c2ccccc2)c2ccccc2)cc1 [13a], which IC50 is on record?
**A.** The IC50 was 20.4 µM.

**Q.** For O=C1C(=O)N(Cc2cn(CC/C(=C(\c3ccccc3)c3ccc(OCCO)cc3)c3ccccc3)nn2)c2ccccc21 [14a], which IC50 is on record?
**A.** Its IC50 is over 100 µM.

**Q.** O=C1C(=O)N(Cc2cn(CC/C(=C(\c3ccccc3)c3ccc(OCCO)cc3)c3ccccc3)nn2)c2ccc(Cl)cc21 [14b] was tested. Which IC50 did it give?
**A.** The IC50 was 18.1 µM.

**Q.** How did the IC50 turn out when O=C1C(=O)N(Cc2cn(CC/C(=C(\c3ccccc3)c3ccc(OCCO)cc3)c3ccccc3)nn2)c2ccc(F)cc21 [14c] was run?
**A.** Its IC50 is 70.7 µM.

**Q.** How did the IC50 turn out when O=C1C(=O)N(Cc2cn(CC/C(=C(\c3ccccc3)c3ccc(OCCO)cc3)c3ccccc3)nn2)c2ccc(Br)cc21 [14d] was run?
**A.** The IC50 was over 100 µM.

**Q.** O=C1C(=O)N(Cc2cn(CC/C(=C(\c3ccccc3)c3ccc(OCCO)cc3)c3ccccc3)nn2)c2c(Br)cc(Br)cc21 [14e] was tested. Which IC50 did it give?
**A.** Its IC50 is 19.2 µM.

**Q.** With O=C1N(Cc2cn(CC/C(=C(\c3ccccc3)c3ccc(OCCO)cc3)c3ccccc3)nn2)c2ccc(Cl)cc2C12OCCO2 [15b] as the molecule, how does the IC50 read?
**A.** The IC50 was over 100 µM.

**Q.** With O=C1N(Cc2cn(CC/C(=C(\c3ccccc3)c3ccc(OCCO)cc3)c3ccccc3)nn2)c2ccc(F)cc2C12OCCO2 [15c] as the molecule, how does the IC50 read?
**A.** Its IC50 is over 100 µM.

**Q.** For O=C1N(Cc2cn(CC/C(=C(\c3ccccc3)c3ccc(OCCO)cc3)c3ccccc3)nn2)c2ccc(Br)cc2C12OCCO2 [15d], which IC50 is on record?
**A.** The IC50 was over 100 µM.

**Q.** With OCCOc1ccc(/C(=C(/CCCl)c2ccccc2)c2ccccc2)cc1 [OSP, Ospemifene, reference compound] as the molecule, how does the IC50 read?
**A.** Its IC50 is over 100 µM.

**Q.** How did the IC50 turn out when CC1=CC(=O)c2c(O)cccc2C1=O [Plumbagin, reference compound] was run?
**A.** Its IC50 is 4.4 µM.

same assay, conditions: MDA-MB-231 versus MCF-7

**Q.** Which “selectivity between cell lines (in words)” value does the source give for COc1ccc(/C(=C(/CCn2cc(CN3C(=O)C(=O)c4cc(Br)ccc43)nn2)c2ccccc2)c2ccccc2)cc1 [12b] here?
**A.** The value was “selective against MDA-MB-231 cells”.

**Q.** Which “selectivity between cell lines (in words)” value does the source give for O=C1C(=O)N(Cc2cn(CC/C(=C(\c3ccccc3)c3ccc(OCCO)cc3)c3ccccc3)nn2)c2ccc(Cl)cc21 [14b] here?
**A.** Its value is “selective for the estrogen-independent MDA-MB-231 cells”.

**Q.** For O=C1C(=O)N(Cc2cn(CC/C(=C(\c3ccccc3)c3ccc(OCCO)cc3)c3ccccc3)nn2)c2c(Br)cc(Br)cc21 [14e], which “selectivity between cell lines (in words)” value is on record?
**A.** The value was “selective for the estrogen-independent MDA-MB-231 cells; also recorded: more selective towards the ER-cells”.

test system: HEK-293 cells; assay: Cytotoxicity against non-tumorigenic HEK-293 cells; type: cell-based; conditions: HEK-293 cells

**Q.** For COc1ccc(/C(=C(/CCn2cc(CN3C(=O)C(=O)c4cc(Br)cc(Br)c43)nn2)c2ccccc2)c2ccccc2)cc1 [12c], which “cytotoxicity against HEK-293 cells (in words)” value (shortened to “cytotoxicity”) is on record?
**A.** The value was “moderately cytotoxic”.

**Q.** How did the “cytotoxicity” value turn out when COc1ccc(/C(=C(/CCn2cc(CN3C(=O)C4(OCCO4)c4cc(Cl)ccc43)nn2)c2ccccc2)c2ccccc2)cc1 [13a] was run?
**A.** Its value is “moderately cytotoxic”.

**Q.** Which “cytotoxicity” value does the source give for O=C1C(=O)N(Cc2cn(CC/C(=C(\c3ccccc3)c3ccc(OCCO)cc3)c3ccccc3)nn2)c2c(Br)cc(Br)cc21 [14e] here?
**A.** The value was “non-cytotoxic”.

same assay, conditions: Homo sapiens, HEK293, read-out: IC50 value in HEK293 cells

**Q.** For COc1ccc(/C(=C(/CCn2cc(CN3C(=O)C(=O)c4cc(Br)cc(Br)c43)nn2)c2ccccc2)c2ccccc2)cc1 [12c], which IC50 is on record?
**A.** Its IC50 is 21.6 µM.

**Q.** Which IC50 does the source give for COc1ccc(/C(=C(/CCn2cc(CN3C(=O)C4(OCCO4)c4cc(Cl)ccc43)nn2)c2ccccc2)c2ccccc2)cc1 [13a] here?
**A.** Its IC50 is 43.9 µM.

**Q.** O=C1C(=O)N(Cc2cn(CC/C(=C(\c3ccccc3)c3ccc(OCCO)cc3)c3ccccc3)nn2)c2c(Br)cc(Br)cc21 [14e] was tested. Which IC50 did it give?
**A.** The IC50 was over 100 µM.
